{"source": "paper PMC2763345", "about": "(PLoS Pathogens, 2009)", "key": {"[1]": {"system": "BCG Rv3790/DprE1 Cys387Ser (BN2)", "type": "cell-based, M. bovis BCG"}, "[2]": {"system": "M. smegmatis Rv3790/DprE1 Cys387Gly (MN47)", "type": "cell-based"}, "[3]": {"system": "M. smegmatis Rv3790/DprE1 Cys387Ser (MN84)", "type": "cell-based"}}}
{"smiles": "O=C(NCCOCc1ccccc1)c1cc([N+](=O)[O-])cc([N+](=O)[O-])c1", "note": "[Compound 7, N-(2-(benzyloxy)ethyl)-3,5-dinitrobenzamide]", "values": [{"measurement": "MIC", "setting": "[1]", "result": "> 10", "unit": "µg/mL"}]}
{"smiles": "COc1ccc(OCCNC(=O)c2cc([N+](=O)[O-])cc([N+](=O)[O-])c2)cc1", "note": "[Compound 8, N-(2-(4-methoxyphenoxy)ethyl)-3,5-dinitrobenzamide]", "values": [{"measurement": "MIC", "setting": "[1]", "result": "> 10", "unit": "µg/mL"}]}
{"smiles": "CO[C@H]1/C=C/O[C@@]2(C)Oc3c(C)c(O)c4c(O)c(c(/C=N/N5CCN(C)CC5)c(O)c4c3C2=O)NC(=O)/C(C)=C\\C=C\\[C@H](C)[C@H](O)[C@@H](C)[C@@H](O)[C@@H](C)[C@H](OC(C)=O)[C@@H]1C", "note": "[Rifampin]", "values": [{"measurement": "MIC", "setting": "[2]", "result": 0.31, "unit": "µg/mL"}, {"measurement": "MIC", "setting": "[3]", "result": 0.31, "unit": "µg/mL"}, {"measurement": "MIC", "setting": "[1]", "result": 0.31, "unit": "µg/mL"}]}
